Data set [1] concerns E. coli MG1655. Put plainly: Growth with TMI supplementation. It is filed as cell-based. Particulars: E. coli MG1655, fluorofolin 2×MIC, 0.3 mM thymine, methionine, inosine. The procedure: (§1) FIGS. 3A and 3B characterize the growth of E. coli MG1655 and P. aeruginosa PA14 respectively in 0.3 mM thymine, methionine, and inosine (TMI) supplemented media and treated with fluorofolin at 2×MIC or DMSO. Curves represent optical at 600 nm (OD600) of 2 biological replicates. Mean±SD are shown.
(§2) Where listed, growth media were prepared according manufacturer recommendations: LB Broth and LB Broth supplemented with 0.3 mM thymine (BD Biosciences 244610, Alfa Aesar A15879), 0.3 mM methionine (Sigma-Aldrich M9625), 0.3 mM inosine (EMD Millipore 4060), Mueller Hinton II Broth (Cation-Adjusted)/(CAMHB) (BD 212322) or 0.3 mM thymidine (Sigma-Aldrich T1895), Gutnick Minimal Media (1.0 g/L K2SO4, 13.5 g/L K2HPO4, 4.7 g/L KH2PO4, 0.1 g/L of MgSO4-7H2O, 10 mM NH4Cl as a nitrogen source, and 0.4% w/v glucose as a carbon source)^62.

Data set [2] has as its system P. aeruginosa PA14. Put plainly: Growth with TMI supplementation. It is filed as cell-based. Conditions: P. aeruginosa PA14, fluorofolin 2×MIC, 0.3 mM TMI. The procedure: as §1, §2
The next data set has as its system A. baumannii BAA-125. Put plainly: MIC in LB Broth. In kind it is cell-based. Conditions: Acinetobacter baumannii, BAA125, 16 hours at 37° C. in LB Broth, OD600. The procedure: (§3) The minimum inhibitory concentration is defined as the lowest concentration of antibiotic at which no visible growth was detected after 16 hours at 37° C. Overnight cultures were diluted 1:150 in LB Broth and added to a 96-well plate. Antibiotics were serially diluted 1:2 and added to columns of the 96-well plate and grown at 37° C. with continuous shaking. Cell growth was measured by optical density (OD600). MIC assays were performed in either BioTek Synergy HT (Winooski, VT) or Tecan InfiniteM200 Pro (Männedorf, CH) microplate readers.

In data set [3] the test system is E. coli MG1655. Put plainly: MIC in LB Broth. Conditions: Escherichia coli, 16 hours at 37° C. in LB Broth, OD600. It is filed as cell-based. The procedure: as §3
The test system of another data set is P. aeruginosa ATTC 27853. Put plainly: MIC in LB Broth. It is filed as cell-based. Conditions: Pseudomonas aeruginosa, ATTC27853, 16 hours at 37° C. in LB Broth, OD600. As for the experimental part: as §3
Data set [4] relates to E. coli lptD4213. Put plainly: MIC in LB Broth. In kind it is cell-based. Particulars: Escherichia coli, LPTD4213, 16 h. As for the experimental part: as §3
The test system of the next data set is E. cloacae ATCC BAA-1143. Put plainly: MIC in LB Broth. In kind it is cell-based. Particulars: Enterobacter cloacae, ATCCBAA1143, 16 hours at 37° C. in LB Broth, OD600. As for the experimental part: as §3
Data set [5] deals with P. aeruginosa PA14. Put plainly: MIC in LB Broth. In kind it is cell-based. Particulars: Pseudomonas aeruginosa. As for the experimental part:
as §3

The test system of the next data set is E. coli NCM-3722. Put plainly: MIC in LB Broth. It is filed as cell-based. Conditions: Escherichia coli, NCM3722, 16 hours at 37° C. in LB Broth, OD600. The procedure:
as §3

The next data set relates to P. aeruginosa PA01. Put plainly: MIC in LB Broth. In kind it is cell-based. Conditions: Pseudomonas aeruginosa, 16 hours at 37° C. in LB Broth, OD600. As for the experimental part: as §3
The subject of data set [6] is K. pneumoniae ATCC 438165. Put plainly: MIC in LB Broth. In kind it is cell-based. Particulars: Klebsiella pneumoniae, ATCC438165, 16 hours at 37° C. in LB Broth, OD600. The procedure: as §3
Another data set relates to S. epidermidis EGM-206. Put plainly: MIC in LB Broth. It is filed as cell-based. Particulars: Staphylococcus epidermidis, EGM206, 16 hours at 37° C. in LB Broth, OD600. The procedure:
as §3

The next data set relates to S. aureus USA300. Put plainly: MIC in LB Broth. Conditions: Staphylococcus aureus, 16 hours at 37° C. in LB Broth, OD600. In kind it is cell-based. As for the experimental part: as §3
For data set [7], the system named is P. aeruginosa PA14. Put plainly: Membrane permeability, TO-PRO-3 flow cytometry. It is filed as cell-based. Conditions: PA14, 2×MIC, 15 min. As for the experimental part:
FIG. 5A provides flow cytometry results of PA14 stained with the membrane permeability dye TO-PRO-3. […]. The gates were determined for TO-PRO-3 staining using solvent only and polymixin B controls.
(§4) The ability of fluorofolin to permeabilize P. aeruginosa PA14 was examined. Specifically, flow cytometry of P. aeruginosa stained with TO-PRO-3 was used, treated the bacteria with 2×MIC, and analyzed membrane integrity. […] It was hypothesized that this decrease in membrane targeting might also decrease toxicity due to the disruption of eukaryotic membranes.
(§5) Overnight P. aeruginosa PA14 or E. coli lptD4213 cultures were diluted 1:100 and grown to mid exponential phase at 37° C. Cultures were diluted 1:10 into PBS and treated with antibiotics for 15 minutes. P. aeruginosa PA14 was stained with TO-PRO-3 (640 nm excitation, 670/30 nm emission) to measure cell membrane integrity. […] DiOC2(3) was evaluated as a ratio of green (488 nm excitation, 525/50 nm emission) to red (488 nm excitation, 610/20 nm emission) (Novo et al., 1999). […] 100,000 events were recorded for each data file. Gates for permeabilization were determined using Polymixin B (Sigma-Aldrich P1004) and untreated controls. Gates for depolarization were determined using CCCP as a positive control. Data was analyzed using FlowJo v10 software (FlowJo LLC, Ashland, OR).
A general note: In flow cytometry, cells or beads pass a laser one at a time.

In data set [8] the test system is E. coli lptD4213. Put plainly: Membrane potential and permeability, TO-PRO-3 and DiOC2(3) flow cytometry. In kind it is cell-based. Particulars: E. coli lptD4213, 2×MIC. As for the experimental part: FIG. 5B provides flow cytometry of E. coli lptD4213 treated with 5% DMSO, 5 μM CCCP, or 2×MIC fluorofolin 0.04 μg/mL polymixin B, and 0.4 μg/mL trimethoprim and stained with TO-PRO-3 and DiOC2(3).
as §4, §5

Description for sheep red blood cells: Percent hemolysis was measured using Abs405 compared to 100% lysis control by Triton X-100 (1% v/v). Mean±SD of technical triplicates are shown.
Samples were treated at 37° C. with shaking for 1 hour and then centrifuged. Supernatants were collected and absorbances were measured at 405 nm in a Tecan InfiniteM200 Pro (Männedorf, CH) microplate reader. Percentage hemolysis was calculated compared to 100% lysis by Triton X-100 (1% v/v) (Sigma-Aldrich X100RS).

What is called MIC is the least concentration at which growth counts as inhibited. Consider `Nc1nc(N)c2c(ccc3c2ccn3Cc2ccnc(F)c2)n1` [fluorofolin], for which the “rescue of growth inhibition by TMI supplementation” value in the data set on E. coli MG1655 [1] was “could also be rescued”; with P. aeruginosa PA14 [2] it was “unable to rescue”. Further, the “permeabilization of red blood cell membranes (hemolysis)” value in the data set on sheep red blood cells was “did not cause significant permeabilization”. Further, the MIC was determined as 31.2 µg/mL with A. baumannii BAA-125; 0.625 µg/mL in the data set with E. coli MG1655 [3]; 25 µg/mL with P. aeruginosa ATTC 27853; 0.02 µg/mL with E. coli lptD4213 [4]; 12.5 µg/mL with E. cloacae ATCC BAA-1143; 3.1 µg/mL with P. aeruginosa PA14 [5] (P. aeruginosa PA14, compound alone). For the same molecule, the MIC came to 3.12 µg/mL in the data set with P. aeruginosa PA14 [5] (P. aeruginosa PA14, 16 hours at 37° C. in LB Broth, OD600); 0.312 µg/mL in the data set with E. coli NCM-3722; 6.25 µg/mL in the data set with P. aeruginosa PA01; 6.25 µg/mL in data set [6]; 0.312 µg/mL with S. epidermidis EGM-206; 0.4 µg/mL in the data set with S. aureus USA300. Besides, the “disruption of membranes (TO-PRO-3)” value in the data set with P. aeruginosa PA14 [7] is recorded as “does not cause significant disruption”. In addition, the “membrane depolarization or permeabilization” value in the data set on E. coli lptD4213 [8] was “does not cause membrane depolarization or permeabilization”.
